Blank lines part the entries; values can stand above or below the compound they belong to.
Columns and labels:
Kollagen-Neusynthese = test: Collagen neosynthesis: P1NP secreted into the medium of a fibroblast / 3D epidermis model co-culture; type: cell-based; settings: for P1NP: Co-Kultur-System, P1NP in medium, unbehandelt = 107
Excerpt: Ein in der Kosmetik relevanter Parameter für die Anti-Aging-Leistung eines Produktes ist die Induktion der Kollagen-Neusynthese. […] Zum Nachweis der Kollagen-Neusynthese wurde ein Co-Kultur-System verwendet, das aus einer zweidimensionalen Fibroblasten-Kultur besteht, auf die in einem Insert ein dreidimensionales Epidermismodell aufgesetzt wurde. Über das Nährmedium kann ein Stoffaustausch zwischen den Fibroblasten und den Keratinocyten des Epidermismodells erfolgen. […] Als Kontrollen für die Syntheseinduktion wurden Retinsäure und Retinol eingesetzt.

CYP26A1 = test: RAMBA activity: change in CYP26A1 marker expression by qPCR in keratinocytes incubated with substance plus retinoic acid
Excerpt: Verschiedene kosmetische Wirkstoffe, die zur Stoffklasse der Azole gerechnet werden können, wurden auf eine mögliche RAMBA-Aktivität hin untersucht. Zu diesem Zweck wurden humane Keratinocyaten für 16 Stunden mit den entsprechenden Substanzen in Kombination mit Retinsäure inkubiert und anschließend mittels qPCR die Expressionsänderung des Markers CYP26A1 verfolgt. Das Enzym CYP26A1 bewirkt die Metabolisierung der Retinsäure und wird durch die Retinsäure selber induziert, wodurch eine Feedbak-Regulation der Retinsäurekonzentration in der Zelle ermöglicht wird. […] Tabelle 1

Rel. Expression CYP26A1 (CYP26A1; 0,01% in combination with Retinsäure (RA, 10nM), humane Keratinocyten, 16 Stunden, qPCR, ethanol control = 1,0): 1,3
SMILES: CC1=NN(c2ccccc2)C(=O)C1 [3-Methyl-1-phenyl-5-pyrazolon]
P1NP (Kollagen-Neusynthese; 0,01%): 129 µg/mL | Induktion der Kollagensynthese (Kollagen-Neusynthese; result in words on Tabelle 2): zeigen eine Induktion der Kollagensynthese | RAMBA-Aktivität (CYP26A1; comparison with Ketokonazol, result in words on Tabelle 1): in etwa die gleiche RAMBA-Aktivität wie Ketokonazol | Induktion von CYP26A1 (CYP26A1; in combination with Retinsäure, result in words on Tabelle 1): deutlich vermindert

SMILES: CC1=C(/C=C/C(C)=C/C=C/C(C)=C/CO)C(C)(C)CCC1 [Retinol, reference compound]
P1NP (Kollagen-Neusynthese; 5µM): 146 µg/mL

SMILES: CC1=C(/C=C/C(C)=C/C=C/C(C)=C/C(=O)O)C(C)(C)CCC1 [Retinsäure, reference compound]
P1NP (Kollagen-Neusynthese; 5µM): 200 µg/mL | Rel. Expression CYP26A1 (CYP26A1; keratinocytes, 16 h, 0.01 µM): 37,6

Reference: patent EP2601931A2, “Cosmetic use of 3-methyl-1-phenyl-5-pyrazolon” (Henkel AG&Co. KGAA, priority 2011, dated 2013)
